According to patent US20140303092A1 (CHIMERIX, INC., priority 2011, published 2014):

Assay: Study HDP-CDV-201: safety and tolerability (adverse events, laboratory abnormalities, discontinuations)
Assay type: in vivo, human (adult allogeneic HSCT recipients)
Method: Clinical Studies of HDP-CDV were performed and described in detail in the following Examples. For example, HDP-CDV-201 is a placebo-controlled, dose-escalating trial in HSCT CMV (R+) recipients, evaluating the ability of HDP-CDV to prevent or control CMV infection was carried out. Five cohorts were established in which participants or subjects received either placebo or the HDP-CDV orally, in doses ranging from 40 mg weekly (QW) to 200 mg twice weekly (BIW). Subjects who were post-HSCT were enrolled at the time of engraftment and randomized to HDP-CDV or placebo (3 to 1 ratio) and received blinded therapy until approximately 100 day post-transplantation. HDP-CDV doses were 40 mg QW, 100 mg QW, 200 mg QW, 200 mg BIW and 100 mg BIW. Escalation to the next dose was decided by the data monitoring committee after review of the safety data from the previous Cohort. Subjects who developed CMV disease or CMV infection requiring pre-emptive therapy with local standard of care were discontinued from blinded therapy and followed for 4 weeks. Subjects who completed treatment with blinded therapy were followed for 8 weeks post-therapy.
Data from Study HDP-CDV-201 also provided characterization of the safety and tolerability profile of HDP-CDV when administered for the prevention or control of CMV infection in high risk (R^+) post-HSCT adult subjects.
The Safety population (SAFETY) included all randomized subjects who took at least one dose of study treatment. This population was used to summarize safety outcomes based on the treatment actually received, in cases where a subject was treated contrary to the randomization schedule.
The safety and tolerability profile of HDP-CDV, including subject demographics and Baseline characteristics; the AE profile; and laboratory abnormalities of interest were analyzed in the cohorts followed in this investigation.
Subjects completing the treatment period received a full course of study medication; those completing the entire study attended visits through 8 weeks of follow up. Subjects who discontinued treatment may have done so for protocol specified reasons (e.g. development of clinically significant CMV infection requiring preemptive treatment with excluded anti-CMV medications) or for other reasons (e.g., withdrawal, adverse events, loss to follow-up). The disposition of subjects in Study HDP-CDV-201 during the double-blind, placebo-controlled treatment period (through Week 11) is listed by dosing Cohort in TABLE 23.
Adverse events were examined by severity to ensure that all safety signals were identified in this study population. Because of the frequency of events in HSCT recipients, particular attention was given to evaluation of Grade 3 […], 4 (severe), and 5 (fatal) adverse events.
Only those preferred terms for which at least one Grade 3 or higher event was experienced in any treatment group are listed. Cytomegalovirus-related AEs are excluded from this analysis.
HDP-CDV is a lipid conjugate of CDV. Because CDV is known to have adverse effects on renal function and bone marrow, decreased GFR and persistent neutropenia were identified as AEs of special interest. Key renal and hematological (TABLE 30) laboratory parameters were measured and listed below by Study HDP-CDV-201 treatment groups. TABLE 30 includes abnormal levels of serum creatinine, neutrophils, platelets, WBCs, and hemoglobin and includes data at Screening and during the treatment period.
A common metric for unit based dosing of medications is by weight (mg/kg). When the distribution of weights was examined for all subjects participating in the study, the median was 78 kg and the lower 25th percentile weight was approximately 65 kg, which translates to a cut-off of ˜3 mg/kg for a 200 mg total weekly dose. Based upon this approach, a cut-off of 3 mg/kg was used to assess the frequency of diarrhea and associated GI AEs reported for the subjects in Cohorts 3 or 4a (TABLE 40).

In the case of `CCCCCCCCCCCCCCCCOCCCOP(=O)(O)COC(CO)Cn1ccc(N)nc1=O` (stereo not drawn) [HDP-CDV], the “TEAE GGT Increased, Frequency” value (100 mg QW) is reported as 1 (3.7%), the “TEAE GGT Increased, Grade 2” value (100 mg QW) is reported as 1 (3.7%) and the “TEAE GGT Increased, Grade 3” value (100 mg QW) is reported as 0. The “TEAE GGT Increased, Grade 4” value (100 mg QW) was 0, the “TEAE GGT Increased, Grade 5” value (100 mg QW) was 0 and the “TEAE Generalized oedema, Frequency” value (100 mg QW) was 0. The “TEAE Generalized oedema, Grade 2” value (100 mg QW) was 0, the “TEAE Generalized oedema, Grade 3” value (100 mg QW) was 0 and the “TEAE Generalized oedema, Grade 4” value (100 mg QW) was 0. For the same compound, the “TEAE Generalized oedema, Grade 5” value (100 mg QW) was 0, the “TEAE Hyperbilirubinaemia, Frequency” value (100 mg QW) was 0 and the “TEAE Hyperbilirubinaemia, Grade 2” value (100 mg QW) was 0. For the same compound, the “TEAE Hyperbilirubinaemia, Grade 3” value (100 mg QW) was 0, the “TEAE Hyperbilirubinaemia, Grade 4” value (100 mg QW) was 0 and the “TEAE Hyperbilirubinaemia, Grade 5” value (100 mg QW) was 0. For the same compound, the “TEAE Hyperglycaemia, Frequency” value (100 mg QW) was 1 (3.7%), the “TEAE Hyperglycaemia, Grade 2” value (100 mg QW) was 0 and the “TEAE Hyperglycaemia, Grade 3” value (100 mg QW) was 1 (3.7%). For the same compound, the “TEAE Hyperglycaemia, Grade 4” value (100 mg QW) was 0, the “TEAE Hyperglycaemia, Grade 5” value (100 mg QW) was 0 and the “TEAE Hyperkalemia, Frequency” value (100 mg QW) was 1 (3.7%). The “TEAE Hyperkalemia, Grade 2” value (100 mg QW) was 0, the “TEAE Hyperkalemia, Grade 3” value (100 mg QW) was 1 (3.7%) and the “TEAE Hyperkalemia, Grade 4” value (100 mg QW) was 0. For the same compound, the “TEAE Hyperkalemia, Grade 5” value (100 mg QW) was 0, the “TEAE Hypocalcaemia, Frequency” value (100 mg QW) was 0 and the “TEAE Hypocalcaemia, Grade 2” value (100 mg QW) was 0. The “TEAE Hypocalcaemia, Grade 3” value (100 mg QW) was 0, the “TEAE Hypocalcaemia, Grade 4” value (100 mg QW) was 0 and the “TEAE Hypocalcaemia, Grade 5” value (100 mg QW) was 0. The “TEAE Hypokalaemia, Frequency” value (100 mg QW) was 2 (7.4%), the “TEAE Hypokalaemia, Grade 2” value (100 mg QW) was 0 and the “TEAE Hypokalaemia, Grade 3” value (100 mg QW) was 0. For the same compound, the “TEAE Hypokalaemia, Grade 4” value (100 mg QW) was 0, the “TEAE Hypokalaemia, Grade 5” value (100 mg QW) was 0 and the “TEAE Hyponatraemia, Frequency” value (100 mg QW) was 1 (3.7%). The “TEAE Hyponatraemia, Grade 2” value (100 mg QW) was 0, the “TEAE Hyponatraemia, Grade 3” value (100 mg QW) was 0 and the “TEAE Hyponatraemia, Grade 4” value (100 mg QW) was 0. The “TEAE Hyponatraemia, Grade 5” value (100 mg QW) was 0, the “TEAE LFT Abnormal, Frequency” value (100 mg QW) was 1 (3.7%) and the “TEAE LFT Abnormal, Grade 2” value (100 mg QW) was 0. For the same compound, the “TEAE LFT Abnormal, Grade 3” value (100 mg QW) was 0, the “TEAE LFT Abnormal, Grade 4” value (100 mg QW) was 0 and the “TEAE LFT Abnormal, Grade 5” value (100 mg QW) was 0. For the same compound, the “TEAE Leukocytosis, Frequency” value (100 mg QW) was 0, the “TEAE Leukocytosis, Grade 2” value (100 mg QW) was 0 and the “TEAE Leukocytosis, Grade 3” value (100 mg QW) was 0. The “TEAE Leukocytosis, Grade 4” value (100 mg QW) was 0, the “TEAE Leukocytosis, Grade 5” value (100 mg QW) was 0 and the “TEAE Nausea, Frequency” value (100 mg QW) was 5 (18.5%). For the same compound, the “TEAE Nausea, Grade 2” value (100 mg QW) was 1 (3.7%), the “TEAE Nausea, Grade 3” value (100 mg QW) was 0 and the “TEAE Nausea, Grade 4” value (100 mg QW) was 0. The “TEAE Nausea, Grade 5” value (100 mg QW) was 0, the “TEAE Neutropenia, Frequency” value (100 mg QW) was 4 (14.8%) and the “TEAE Neutropenia, Grade 2” value (100 mg QW) was 1 (3.7%). For the same compound, the “TEAE Neutropenia, Grade 3” value (100 mg QW) was 2 (7.4%), the “TEAE Neutropenia, Grade 4” value (100 mg QW) was 1 (3.7%) and the “TEAE Neutropenia, Grade 5” value (100 mg QW) was 0. For the same compound, the “TEAE Pneumonia, Frequency” value (100 mg QW) was 2 (7.4%), the “TEAE Pneumonia, Grade 2” value (100 mg QW) was 0 and the “TEAE Pneumonia, Grade 3” value (100 mg QW) was 1 (3.7%). For the same compound, the “TEAE Pneumonia, Grade 4” value (100 mg QW) was 1 (3.7%), the “TEAE Pneumonia, Grade 5” value (100 mg QW) was 0 and the “TEAE Pyrexia, Frequency” value (100 mg QW) was 1 (3.7%). For the same compound, the “TEAE Pyrexia, Grade 2” value (100 mg QW) was 0, the “TEAE Pyrexia, Grade 3” value (100 mg QW) was 0 and the “TEAE Pyrexia, Grade 4” value (100 mg QW) was 0. For the same compound, the “TEAE Pyrexia, Grade 5” value (100 mg QW) was 0, the “TEAE Renal Failure, Frequency” value (100 mg QW) was 2 (7.4%) and the “TEAE Renal Failure, Grade 2” value (100 mg QW) was 2 (7.4%). For the same compound, the “TEAE Renal Failure, Grade 3” value (100 mg QW) was 0, the “TEAE Renal Failure, Grade 4” value (100 mg QW) was 0 and the “TEAE Renal Failure, Grade 5” value (100 mg QW) was 0. The “TEAE Staphylococcal Bacteremia, Frequency” value (100 mg QW) was 1 (3.7%), the “TEAE Staphylococcal Bacteremia, Grade 2” value (100 mg QW) was 0 and the “TEAE Staphylococcal Bacteremia, Grade 3” value (100 mg QW) was 1 (3.7%). The “TEAE Staphylococcal Bacteremia, Grade 4” value (100 mg QW) was 0, the “TEAE Staphylococcal Bacteremia, Grade 5” value (100 mg QW) was 0 and the “TEAE Thrombocytopenia, Frequency” value (100 mg QW) was 3 (11.1%). For the same compound, the “TEAE Thrombocytopenia, Grade 2” value (100 mg QW) was 1 (3.7%), the “TEAE Thrombocytopenia, Grade 3” value (100 mg QW) was 1 (3.7%) and the “TEAE Thrombocytopenia, Grade 4” value (100 mg QW) was 1 (3.7%). For the same compound, the “TEAE Thrombocytopenia, Grade 5” value (100 mg QW) was 0, the “TEAE Vomiting, Frequency” value (100 mg QW) was 6 (22.2%) and the “TEAE Vomiting, Grade 2” value (100 mg QW) was 2 (7.4%). The “TEAE Vomiting, Grade 3” value (100 mg QW) was 0, the “TEAE Vomiting, Grade 4” value (100 mg QW) was 0 and the “TEAE Vomiting, Grade 5” value (100 mg QW) was 0. For the same compound, the “Subjects Reporting Diarrhea as an AE” value (100 mg QW, n = 27) was 8 (29.6%), the “Discontinuation: Death” value (100 mg QW, active treatment period) was 0 Subject n (%) and the “Discontinuation: Adverse event” value (100 mg QW, active treatment period through Week 11) was 3 (11.1%) Subject n (%). The “subjects who discontinued study medications” value (100 mg weekly) was 33%, the “TEAE ALT increased, Frequency” value (200 mg BIW) was 10 (33.3%) and the “TEAE ALT increased, Grade 2” value (200 mg BIW) was 4 (13.3%). For the same compound, the “TEAE ALT increased, Grade 3” value (200 mg BIW) was 2 (6.7%), the “TEAE ALT increased, Grade 4” value (200 mg BIW) was 0 and the “TEAE ALT increased, Grade 5” value (200 mg BIW) was 0. For the same compound, the “TEAE AML, Recurrent, Frequency” value (200 mg BIW) was 0, the “TEAE AML, Recurrent, Grade 2” value (200 mg BIW) was 0 and the “TEAE AML, Recurrent, Grade 3” value (200 mg BIW) was 0. The “TEAE AML, Recurrent, Grade 4” value (200 mg BIW) was 0, the “TEAE AML, Recurrent, Grade 5” value (200 mg BIW) was 0 and the “TEAE AST increased, Frequency” value (200 mg BIW) was 7 (23.3%). The “TEAE AST increased, Grade 2” value (200 mg BIW) was 3 (10.0%), the “TEAE AST increased, Grade 3” value (200 mg BIW) was 0 and the “TEAE AST increased, Grade 4” value (200 mg BIW) was 0. For the same compound, the “TEAE AST increased, Grade 5” value (200 mg BIW) was 0, the “TEAE Abdominal pain, Frequency” value (200 mg BIW) was 11 (36.7%) and the “TEAE Abdominal pain, Grade 2” value (200 mg BIW) was 8 (26.7%).
